Test results as given in patent publication US20140010939A1, “Sweetness Enhancers, Sweetener Compositions, Methods of Making the Same and Consumables Containing the Same” (Nutrinova Nutrition Specialties & Food Ingredients GmbH, priority 2011, published 2014).

Columns and labels:
[1] = test system: control cell line without sweet receptor (HEKα15#17); assay: Control cell line without sweet receptor in the same calcium cell based assay
Method: For measurement of human T1R2/T1R3 taste receptor dependent activity a control cell line without sweet receptor based on HEK 293 and a cell line expressing the sweet receptor hT1R2/hT1R3 based on HEK 293, respectively, are seeded into assay plates and labelled with the calcium sensitive fluorescence dye Fluo4-AM in a culture medium. The potential modulators, e.g. the test compound, are added to the control cell line and to the cell line expressing the sweet receptor hT1R2/hT1R3, respectively.
A stable cell line based on HEK293 was termed HEKα15#17 served as control for functional Ga-protein and a stable cell line HEKGα15#17R2R3b#8 C6 served as cell line expressing the sweet receptor hT1R2/hT1R3 based on HEKGα15#17.
The cells were cultured in DMEM/HG and 10% FCS Gold, 4 mM L-Glutamin, 1,3 mg/ml Geneticin (HEKGα15#17) or the same medium additionally containing 6 μg/ml Blasticidin (HEKGα15#17R2R3b#8 C6). The medium for the assay was DMEM/HG (high glucose, 4.5 g/l glucose, Life Technologies) and 10% FCS Gold, 4 mM L-Glutamin (HEKGα15#17) or DMEM/LG (low glucose, 1 g/l glucose; Life Technologies) and 10% FCS Gold (HEKGα15#17R2R3b#8C6), respectively.
In order to evaluate the sweet receptor modulating activity of the compound of formula (Ia), compound of formula (Ia) was added to the cultures in a concentration of 25 μM in a volume of 50 μl. Controls were KH-buffer (Krebs HEPES-buffer: 118 mM NaCl, 4.7 mM KCl, 1.2 mM MgSO4, 1.2 mM KH2PO4, 4.2 mM NaHCO3, 1.3 mM CaCl2, 10 mM Hepes, pH 7.4) either without or with sweetness enhancer.
Further controls for function of G-protein and receptor were isoproterenol (1 μM, Sigma Aldrich), ionomycin (1 μM, Calbiochem) and ATP (1 μM, Applichem).
For measurement of human T1R2/T1R3 taste receptor dependent activity, on day 1 of the test procedure the HEKα15#17 cells (control cell line without sweet receptor) and the HEKGα15#17R2R3b#8 C6 cells (cell line expressing the sweet receptor hT1R2/hT1R3), respectively, were transferred to low-glucose medium.
On day 2 the cells were seeded into assay plates at a density of 25,000 cells/well. Assay plates for fluorescence measurement (black clear bottom 96-cavity plates, Greiner Bio-One) were coated with poly-D-lysine. For direct comparison both cell lines (control cell line without sweet receptor and cell line expressing the sweet receptor hT1R2/hT1R3) were seeded into different cavities of the same assay plate. The plate was placed into the incubator for 48 hours at 37° C., 5% CO2, 100% relative humidity.
On day 4 the calcium assay was performed. For this assay, the cells were marked with Fluo4-AM in medium and KH-buffer. To each cavity 100 μl KH-buffer/250 μM sulfinpyrazone/4 μM Fluo4-AM were added gently to 100 μl medium (final concentration of Fluo4-AM=2 μM, stock solution of Fluo4-AM 1 mM in DMSO, excitation at 485 nm, emission at 520 nm, Fisher Scientific, 58239 Schwerte, Germany).
The plate was placed into the incubator for 1 hour. In the mean time the test substances (“ligands”) were prepared in a separate plate (5 times concentrated, 150 μl/cavity, and then automatically 50 μl/cavity were transferred into the screening cell plate by pipetting robot (FLEX-station, Molecular Devices, Sunnyvale, Calif.).
The culture medium was carefully removed and 200 μl KH-buffer/250 μM sulfinpyrazone per cavity was added slowly. Cells were left in the FLEX-station for 20 minutes for adaptation, followed by measurement at 37° C.

[2] = Taste and spit assay phase II - assessment of fructose enhancing features; assay type: in vivo; conditions: 20 μM with fructose (4%) in 0.5% ethanol versus fructose (4%) only, 5 individuals, 10 ml
Method: The taste of a sample of compound of formula (Ia) with regard to sweetness and fructose enhancing features was assessed by using a panel of trained sensory evaluators experienced in the sweet taste estimation procedure. 5 individuals were asked to taste the quality of single samples of 10 ml volume. Panelists were asked to take a sample of the liquid to be assessed (20 μM test substance compound of formula (Ia) in 0.5% ethanol) into the mouth and after some time allowed for taste perception to spit the sample out completely. Subsequently, the panelists were asked to rinse their mouth well with water or black tea to reduce any potential carry over effects. The tasting of a sample could be repeated if required. In the next step the panelists were asked to answer questions in a pairwise comparison test to determine the enhancement of sweet taste of the test substance with fructose relative to fructose only. Again, 5 individuals were given samples of 10 ml volume. This time two samples were prepared for direct comparison regarding sweetness. One sample contained fructose (4%) in solvent (0.5% ethanol) and the other sample additionally contained 20 μM of the test substance compound of formula (Ia). Designation of the samples with A and B was randomized and decoded after the taste procedure. […]

[3] = Stability test at 30° C. at three pH-values (HPLC); assay type: physicochemical; conditions: for Stability: 30° C., 8 weeks, 0.2 mM, HPLC
Method: The stability of the compound of formula (Ia) was tested at 30° C. at three different pH-values.
The test ran over 8 weeks with the compound of formula (Ia) placed in temperature controlled ovens. Samples were taken according to the following scheme: Days 0, 3, 6, 10, 14, 21, and 28 followed by weeks 6 and 8. All samples were analyzed by HPLC. Reference samples for days 3, 6, 10, 14, 21, and 28 plus weeks 6 and 8 were kept at −20° C. and analyzed together with the samples at 30° C.
Each individual sample of the compound of formula (Ia) contained 18 μg in 200 μl buffer (0.2 mM). All samples were prepared in 1.5 ml HPLC vials at the same day. Samples for day 0 were immediately analyzed and all other samples placed in ovens. Reference samples were immediately frozen at −20° C.
One reference sample per pH-value was used. Samples from the oven were taken and reference samples were added after thawing. The set of samples at 30° with reference sample was grouped into the HPLC autosampler to minimize the time gap between HPLC-analysis within each set of samples. All samples were analyzed by double injections.
Samples were analyzed by the method shown below. The target peak was manually integrated and mean values of double injections were used to prepare graphs for assessment of the stability (see FIGS. 4 to 6).

## CC(=O)N(O)CCCCCNC(=O)C(O)(CC(=O)O)CC(=O)NCCCN(O)C(C)=O (centres unmarked) [compound of formula (Ia)]
[1]; 25 μM, in the presence of fructose (20 mM), FIG. 1 ninth bar
  Fluo4-AM fluorescence increase (activation of control cell line): does not activate the control cell line
[1]; 25 μM, without fructose, FIG. 1 eighth bar
  Fluo4-AM fluorescence increase (activation of control cell line): does neither activate the control cell line
[1]; secondary screening, in the presence of fructose, FIG. 1 seventh bar
  Fluo4-AM fluorescence increase (activation of control cell line): does not activate the control cell line
[2]
  Sweetness in pairwise comparison with fructose only: All 5 panelists identified the sample containing 4% fructose with the compound of formula (Ia) as sweeter than the sample containing 4% fructose only
[3]; pH=3.0 Na-Citrate buffer, FIG. 4
  Stability: stable during 8 weeks at 30 °C at pH=3.0
[3]; pH=4.5 Na-Citrate buffer, FIG. 5
  Stability: stable during 8 weeks at 30 °C at pH=4.5
[3]; pH=6.5 phosphate buffer, FIG. 6
  Stability: stable during 8 weeks at 30 °C at pH=6.5
[3]; summary of the test at 30° C., pH 3.0, 4.5, 6.5
  Temperature and pH stability (overall): excellent temperature and pH stability
